{"source": "paper PMC3878761", "about": "“Interactions of peptide triazole thiols with Env gp120 induce irreversible breakdown and inactivation of HIV-1 virions” (Retrovirology, 2013)", "key": {"HIV-1 YU2 gp120": {"target": "T1, HIV-1 YU2 gp120 (Human immunodeficiency virus type 1 group M subtype B, UniProt P35961)", "T1 construct": "made in house; host or cells: 293F cells", "test": "SPR direct binding to immobilized YU2 gp120", "conditions": "immobilized YU2 gp120, PBS + 0.005% Tween 20, pH 7.2, 25°C", "experimental": "(Additional file 1: Figure S2). […] Direct binding of the peptide triazole to sensor chip immobilized HIV-1 YU2 gp120 was measured as previously described using Surface Plasmon Resonance (SPR) with a Biacore 3000 optical biosensor (GE Healthcare). […] The cell viability was measured using the tetrazolium salt premix reagent, WST-1 from Takara Bio Inc. following the manufacturer’s protocol. The formazan product was measured using the microplate reader at absorbance wavelength 460 nm (Molecular Devices)."}, "[1]": {"test_system": "gp41 of HIV-1 BaL pseudovirus (4E10 epitope)", "test": "exposure of gp41 MPER epitope, 4E10 ELISA", "conditions": "fixed BaL pseudovirions, 30 min at 37°C (dose) or 1 μM (time), n = 3", "experimental": "(§1) We also measured the presence of gp41 epitopes for human mAb’s 2 F5 and 4E10 using an altered ELISA detection method to minimize virus particle disruption. […] Virus fractions were collected and fixed with equal volume of 0.1% paraformaldehyde for 30 minutes at 4°C. The treated virus fractions were spun at 16,000 X g for 2 hours at 4°C in an Eppendorf table top centrifuge. Following PBS wash, fixed virions were coated on an ELISA plate at 50 μl per well and incubated overnight at 4°C. The plate was blocked with 3% BSA, and ELISA was used to detect gp41 epitopes with human gp41 antibodies 2 F5 and 4E10 followed by addition of anti-human IgG HRP secondary antibody."}, "[2]": {"test_system": "gp41 of HIV-1 BaL pseudovirus (2 F5 epitope)", "test": "exposure of gp41 MPER epitope, 2 F5 ELISA", "conditions": "fixed BaL pseudovirions, 30 min at 37°C (dose) or 1 μM (time), n = 3", "experimental": "as §1"}, "[3]": {"test_system": "CHO-K1 cells expressing gp160", "test": "gp120 shedding and lysis, CHO-K1 cells expressing gp160", "format": "cell-based", "conditions": "unpublished results, manuscript in preparation"}, "HIV-1 BaL pseudovirus [4]": {"test_system": "HIV-1 BaL pseudovirus"}, "[5]": {"test_system": "R5-tropic and X4-tropic HIV-1", "design": "method as in 2 sources, one per row (each row's own in cited_ref): ref 7-9, 12 = [7]; PMID 20518583; doi:10.2165/11203940-000000000-00000; Perry CM Maraviroc: a review of its use in the management of CCR5-tropic HIV-1 infection Drugs 2010 10 9 1189 1213 10.2165/11203940-000000000-00000 20518583 || [8]; PMID 23541872; doi:10.1016/j.antiviral.2013.03.017; Haqqani AA Tilton JC Entry inhibitors and their use in the treatment of HIV-1 infection Antiviral Res 2013 10 2 158 170 10.1016/j.antiviral.2013.03.017 23541872 || [9]; PMID 23290628; doi:10.1016/j.coviro.2012.12.002; Henrich TJ Kuritzkes DR HIV-1 entry inhibitors: recent development and clinical use Curr Opin Virol 2013 10 1 51 57 10.1016/j.coviro.2012.12.002 23290628 PMC4213740 || [12]; PMID 17933722; Emmelkamp JM Rockstroh JK CCR5 antagonists: comparison of efficacy, side effects, pharmacokinetics and interactions–review of the literature Eur J Med Res 2007 10 9 409 417 17933722 ||| ref 34 = [34]; PMID 23470147; doi:10.1021/bi400166b; Emileh A Tuzer F Yeh H Umashankara M Moreira DR Lalonde JM Bewley CA Abrams CF Chaiken IM A model of peptide triazole entry inhibitor binding to HIV-1 gp120 and the mechanism of bridging sheet disrupt", "conditions": "cited from earlier work"}, "[6]": {"test_system": "pseudotype virions bearing the HIV-1 BaL envelope glycoprotein", "conditions": "determined by release of the p24 capsid protein; cited from earlier work", "from_the_text": "Since gp120 is the first viral protein to interact with the host cell, it is an attractive target for inhibiting infection. […] This inhibition is mediated by binding to a region of gp120 that partially overlaps the CD4 binding site."}, "HIV-1 BaL pseudovirus [7]": {"test_system": "HIV-1 BaL pseudovirus", "test": "TEM morphology of treated virions", "conditions": "KR13 1 μM, 24 hours"}, "[8]": {"test_system": "fully infectious HIV-1 BaL virions", "conditions": "read-out: p24 release IC50 (*, fully infectious), 30 min at 37°C, p24 capture ELISA, ± SD", "description": "(§2) The replication competent virions were assayed for peptide triazole-induced inhibition of infection, gp120 shedding and p24 release in a BSL-2 facility. Gradient purification of the viruses and p24 release assays were performed as with pseudoviruses (described in Materials and Methods above). Cell infection by virus and its inhibition by peptide triazoles were tested using a modified version of a previously reported p24 ELISA assay [60]. The p24 release assays as well as detection of gp120 shedding were conducted as with the BaL pseudovirions (described in Materials and Methods above).\n(§3) Virions were purified using 6-20% iodixanol gradient and p24 content measured using ELISA. […] HOS CD4^+ve CCR5^+ve cells seeded, at 8,000 cells per well in a 96 well plate, were incubated for 24 hours followed by addition of pre-incubated inhibitor-virus mixture. […] Further, the peptide triazole and cell-free virus were pre-incubated for 30 min at 37°C followed by spinning for 2 hours at 13,600 rpm in a table top centrifuge (Eppendorf) at 4°C. Supernatant was separated and p24 content determined using the p24 capture ELISA (explained in the main Materials and Methods section) and gp120 using western blot analysis (explained in the Supplementary Text above)."}, "HIV-1 BaL pseudovirus [9]": {"test_system": "HIV-1 BaL pseudovirus", "test": "p24 release from HIV-1 BaL pseudovirus (ELISA)"}, "[10]": {"test_system": "fully infectious HIV-1 BaL virions", "test": "gp120 shedding from fully infectious HIV-1 BaL", "conditions": "read-out: gp120 shedding IC50 (*, fully infectious), 30 min at 37°C, western blot, ± SD", "description": "as §2, §3"}, "[11]": {"test_system": "gp41 of HIV-1 BaL pseudovirus (98–6 epitope)", "test": "gp41 content of treated virions, mAb 98-6 western blot", "conditions": "western blot mAb 98–6, BaL pseudovirus"}, "HIV-1 BaL pseudovirus [12]": {"test_system": "HIV-1 BaL pseudovirus", "test": "gp120 shedding from HIV-1 BaL pseudovirus (western blot)"}, "[13]": {"conditions": "KR13 1 μM or HNG156 100 μM, 1 min to 24 hours, 37°C"}, "[14]": {"conditions": "KR13 (1 μM), 30 minutes exposure, n = 3"}}, "note": "Entries after “also recorded” stand apart in the source; their conditions may differ. Where two headings read alike, the source gives them in different places.", "data": [{"smiles": "CC[C@H](C)[C@H](NC(=O)[C@@H](N)CCCNC(=N)N)C(=O)N[C@@H](CC(N)=O)C(=O)N[C@@H](CC(N)=O)C(=O)N[C@H](C(=O)N1C[C@@H](n2cc([C]34[CH]5[CH]6[CH]7[CH]3[Fe]6754389%10[CH]4[CH]3[CH]8[CH]9[CH]4%10)nn2)C[C@H]1C(=O)N[C@@H](Cc1c[nH]c2ccccc12)C(=O)N[C@@H](CO)C(=O)N[C@@H](CCC(=O)O)C(=O)N[C@@H](C)C(=O)N[C@@H](CCSC)C(=O)N[C@@H](CCSC)C(=O)NCCC(=O)N[C@@H](CCC(N)=O)C(=O)NCCC(=O)N[C@@H](CS)C(N)=O)[C@@H](C)CC", "note": "(stereo partly drawn) [KR13]", "values": [{"measurement": "SPR direct binding to gp120, in words", "setting": "HIV-1 YU2 gp120", "result": "proportionally increasing binding responses to immobilized gp120 at increasing concentrations of KR13"}, {"measurement": "reactivity to 4E10", "setting": "[1]", "result": "reactivity to 4E10 and 2 F5 increased in a dose-dependent manner; also recorded: time dependent exposure of the MPER epitope"}, {"measurement": "reactivity to 2 F5", "setting": "[2]", "result": "reactivity to 4E10 and 2 F5 increased in a dose-dependent manner; also recorded: time dependent exposure of the MPER epitope"}, {"measurement": "gp120 shedding, CHO-K1 cells expressing gp160", "setting": "[3]", "result": "caused gp120 shedding"}, {"measurement": "lysis of CHO-K1 cells expressing gp160", "setting": "[3]", "result": "did not lyse the cells"}, {"measurement": "kinetics of infectivity inhibition versus gp120 shedding", "setting": "HIV-1 BaL pseudovirus [4]; [13]", "result": "infectivity inhibition and gp120 shedding had similar kinetics"}, {"measurement": "loss of infectivity", "setting": "HIV-1 BaL pseudovirus [4]; [14]", "result": "65-70%"}, {"measurement": "inhibition of infection, in words", "setting": "HIV-1 BaL pseudovirus [4]; single round infection assay", "result": "inhibited infection"}, {"measurement": "inhibition of R5- and X4-tropic viruses", "setting": "[5]", "result": "potent inhibitor of R5- and X4-tropic viruses"}, {"measurement": "lysis of BaL pseudotype virions", "setting": "[6]", "result": "induced lysis of pseudotype virions bearing the HIV-1 BaL envelope glycoprotein"}, {"measurement": "core morphology of virions", "setting": "HIV-1 BaL pseudovirus [7]", "result": "substantially different, with a shriveled and disordered appearance"}, {"measurement": "reduction of virion diameter", "setting": "HIV-1 BaL pseudovirus [7]; 37°C, n = 16", "result": "> 50", "unit": "%"}, {"measurement": "IC50", "setting": "[8]", "result": 4.4, "unit": "µM"}, {"measurement": "kinetics of p24 release", "setting": "HIV-1 BaL pseudovirus [9]; [13]", "result": "delayed kinetically"}, {"measurement": "loss of p24", "setting": "HIV-1 BaL pseudovirus [9]; [14]", "result": 10, "unit": "%"}, {"measurement": "reduction in virion p24 content", "setting": "HIV-1 BaL pseudovirus [9]; KR13 (1 μM), 360 minutes", "result": 50, "unit": "%"}, {"measurement": "IC50", "setting": "HIV-1 BaL pseudovirus [9]; read-out: p24 release IC50, 30 minutes, gradient fractionation, capture ELISA, 1% triton X = 100%, ± SD, n > 3", "result": "0.032 ± 0.01", "unit": "µM"}, {"measurement": "IC50", "setting": "[10]", "result": 1.2, "unit": "µM"}, {"measurement": "gp41 retention / 98–6 detection", "setting": "[11]", "result": "gp41 remained associated with virions; also recorded: gp41 was detected only weakly by 98–6 in either soluble or virion-associated fractions"}, {"measurement": "gp120 shedding, in words", "setting": "HIV-1 BaL pseudovirus [12]", "result": "caused gp120 shedding"}, {"measurement": "loss of gp120", "setting": "HIV-1 BaL pseudovirus [12]; [14]", "result": "65-70%"}]}]}
